For 29 compounds, IC50 results are on record in patent US10858335B2 (Rigel Pharmaceuticals, Inc., priority 2014, dated 2020).

SMILES strings stand for the structures.

The subject of this test is GDF8 signaling (p-SMAD-3 (Ser423/425)). Briefly: AlphaScreen SureFire SMAD3 (p-Ser423/425) assay, GDF8-stimulated cells (GDF pSMAD). The class given is cell-based. The settings on record: Mus musculus, MPC-11, MPC11; GDF8-stimulated; p-SMAD3 AlphaScreen; read-out: GDF pSMAD (MPC11) (inhibition of GDF8 signaling). A general note: In Alpha technology, singlet oxygen from a donor bead excites a nearby acceptor bead.

Regarding `Cc1cc(-c2ncccc2-c2ccn3ncc(C(=O)NCC4CCN(C)CC4)c3c2)ccc1F` [compound 656, 5-(2-(4-Fluoro-3-methylphenyl)pyridin-3-yl)-N-((1-methylpiperidin-4-yl)methyl)pyrazolo[1,5-a]pyridine-3-carboxamide], the IC50 is 550 nM.

In the case of `Fc1ccccc1-c1ncccc1-c1ccc2ncsc2c1` [compound 657, 6-(2-(2-Fluorophenyl)pyridin-3-yl)benzo[d]thiazole], the IC50 came out at 3490 nM.

On to `Fc1cccc(-c2ncccc2-c2ccc3ncsc3c2)c1` [compound 658, 6-(2-(3-Fluorophenyl)pyridin-3-yl)benzo[d]thiazole], for which the IC50 came out at 1500 nM.

For the compound `Fc1ccc(-c2ncccc2-c2ccc3ncsc3c2)cc1` [compound 659, 6-(2-(4-Fluorophenyl)pyridin-3-yl)benzo[d]thiazole], the IC50 was 2010 nM.

On to `Fc1cc(F)cc(-c2ncccc2-c2ccc3ncsc3c2)c1` [compound 660, 6-(2-(3,5-Difluorophenyl)pyridin-3-yl)benzo[d]thiazole], for which the IC50 was 2240 nM.

As for `Fc1ccc(-c2ncccc2-c2ccc3ncsc3c2)cc1F` [compound 661, 6-(2-(3,4-Difluorophenyl)pyridin-3-yl)benzo[d]thiazole], the IC50 was determined as 1840 nM.

`Fc1cccc(-c2ncccc2-c2ccc3ncsc3c2)c1F` [compound 662, 6-(2-(2,3-Difluorophenyl)pyridin-3-yl)benzo[d]thiazole]: the IC50 is 9640 nM.

Consider `Cc1cc(-c2ncccc2-c2ccn3ncc(C(=O)N[C@@H]4CCCC[C@H]4N)c3c2)ccc1F` [compound 663, N-((1R,2R)-2-Aminocyclohexyl)-5-(2-(4-fluoro-3-methylphenyl)pyridin-3-yl)pyrazolo[1,5-a]pyridine-3-carboxamide], for which the IC50 came out at 8090 nM.

Take `Cc1cc(-c2ncccc2-c2ccn3ncc(C(=O)N[C@H]4CCCC[C@@H]4N)c3c2)ccc1F` [compound 664, N-((1S,2S)-2-Aminocyclohexyl)-5-(2-(4-fluoro-3-methylphenyl)pyridin-3-yl)pyrazolo[1,5-a]pyridine-3-carboxamide]: the IC50 was 1380 nM.

In the case of `Fc1ccc(-c2ncccc2-c2ccc3ncsc3c2)c(F)c1` [compound 665, 6-(2-(2,4-Difluorophenyl)pyridin-3-yl)benzo[d]thiazole], the IC50 is 2360 nM.

Turning to `Fc1cc(-c2ncccc2-c2ccc3ncsc3c2)cc(F)c1F` [compound 666, 6-(2-(3,4,5-Trifluorophenyl)pyridin-3-yl)benzo[d]thiazole], the IC50 came out at 3970 nM.

`Cc1ccc(F)c(-c2ncccc2-c2ccc3ncsc3c2)c1` [compound 667, 6-(2-(2-Fluoro-5-methylphenyl)pyridin-3-yl)benzo[d]thiazole]: the IC50 was 226 nM.

Take `Clc1cccc(-c2ncccc2-c2ccc3ncsc3c2)c1` [compound 668, 6-(2-(3-Chlorophenyl)pyridin-3-yl)benzo[d]thiazole]: the IC50 was 313 nM.

Regarding `COc1cccc(-c2ncccc2-c2ccc3ncsc3c2)c1` [compound 669, 6-(2-(3-Methoxyphenyl)pyridin-3-yl)benzo[d]thiazole], the IC50 amounted to 499 nM.

As to `N#Cc1cccc(-c2ncccc2-c2ccc3ncsc3c2)c1` [compound 670, 3-(3-(Benzo[d]thiazol-6-yl)pyridin-2-yl)benzonitrile], the IC50 turned out to be 367 nM.

As for `Cc1cc(-c2ncccc2-c2ccn3ncc(C(=O)NCCCN4CCOCC4)c3c2)ccc1F` [compound 672, 5-(2-(4-Fluoro-3-methylphenyl)pyridin-3-yl)-N-(3-morpholinopropyl)pyrazolo[1,5-a]pyridine-3-carboxamide], the IC50 worked out at 273 nM.

Consider `Cc1cc(-c2ncccc2-c2ccn3ncc(C(=O)NCCN(C)C)c3c2)ccc1F` [compound 673, N-(2-(Dimethylamino)ethyl)-5-(2-(4-fluoro-3-methylphenyl)pyridin-3-yl)pyrazolo[1,5-a]pyridine-3-carboxamide], for which the IC50 is 375 nM.

Consider `Cc1cc(-c2ncccc2-c2ccn3ncc(C(=O)NCCN4CCOCC4)c3c2)ccc1F` [compound 674, 5-(2-(4-Fluoro-3-methylphenyl)pyridin-3-yl)-N-(2-morpholinoethyl)pyrazolo[1,5-a]pyridine-3-carboxamide], for which the IC50 is 211 nM.

Turning to `Cc1cc(-c2ncccc2-c2ccn3ncc(C(=O)NCCCN4CCCC4)c3c2)ccc1F` [compound 675, 5-(2-(4-Fluoro-3-methylphenyl)pyridin-3-yl)-N-(3-(pyrrolidin-1-yl)propyl)pyrazolo[1,5-a]pyridine-3-carboxamide], the IC50 came out at 227 nM.

Consider `Cc1cc(-c2ncccc2-c2ccn3ncc(C(=O)NCCCN4CCN(C)CC4)c3c2)ccc1F` [compound 676, 5-(2-(4-Fluoro-3-methylphenyl)pyridin-3-yl)-N-(3-(4-methylpiperazin-1-yl)propyl)pyrazolo[1,5-a]pyridine-3-carboxamide], for which the IC50 was 267 nM.

For `CCOC(=O)c1cnn2ccc(-c3cccnc3-c3ccc(F)c(C)c3)cc12` [compound 677, Ethyl 5-(2-(4-Fluoro-3-methylphenyl)pyridin-3-yl)pyrazolo[1,5-a]pyridine-3-carboxylate], the IC50 is 562 nM.

As to `Cc1cc(-c2ncccc2-c2ccn3ncc(C(=O)O)c3c2)ccc1F` [compound 678, 5-(2-(4-Fluoro-3-methylphenyl)pyridin-3-yl)pyrazolo[1,5-a]pyridine-3-carboxylic acid], the IC50 was 2470 nM.

`Cc1cc(-c2ncccc2-c2ccc3ncc(C(=O)N[C@@H]4CCCC[C@H]4N)n3c2)ccc1F` [compound 679, N-((1R,2R)-2-Aminocyclohexyl)-6-(2-(4-fluoro-3-methylphenyl)pyridin-3-yl)imidazo[1,2-a]pyridine-3-carboxamide]: the IC50 worked out at 10800 nM.

For `Cc1cc(-c2ncccc2-c2ccc3ncc(C(=O)N[C@H]4CCCC[C@@H]4N)n3c2)ccc1F` [compound 680, N-((1S,2S)-2-Aminocyclohexyl)-6-(2-(4-fluoro-3-methylphenyl)pyridin-3-yl)imidazo[1,2-a]pyridine-3-carboxamide], the IC50 turned out to be 2130 nM.

With `Cc1cc(-c2ncccc2-c2ccc3ncc(C(=O)NCCN)n3c2)ccc1F` [compound 681, N-(2-Aminoethyl)-6-(2-(4-fluoro-3-methylphenyl)pyridin-3-yl)imidazo[1,2-a]pyridine-3-carboxamide], the IC50 stood at 288 nM.

`Cc1cc(-c2ncccc2-c2ccc3ncc(C(=O)NCCCN)n3c2)ccc1F` [compound 682, N-(3-Aminopropyl)-6-(2-(4-fluoro-3-methylphenyl)pyridin-3-yl)imidazo[1,2-a]pyridine-3-carboxamide]: the IC50 was 539 nM.

For the compound `Cc1cc(-c2ncccc2-c2ccn3ncc(C(=O)NCCN)c3c2)ccc1F` [compound 683, N-(2-Aminoethyl)-5-(2-(4-fluoro-3-methylphenyl)pyridin-3-yl)pyrazolo[1,5-a]pyridine-3-carboxamide], the IC50 was 234 nM.

`Cc1cc(-c2ncccc2-c2ccn3ncc(C(=O)NCCCN)c3c2)ccc1F` [compound 684, N-(3-Aminopropyl)-5-(2-(4-fluoro-3-methylphenyl)pyridin-3-yl)pyrazolo[1,5-a]pyridine-3-carboxamide]: the IC50 is 593 nM.

With `COC(=O)c1cnc2ccc(-c3cccnc3-c3ccc(F)c(C)c3)cn12` [compound 685, Methyl 6-(2-(4-fluoro-3-methylphenyl)pyridin-3-yl)imidazo[1,2-a]pyridine-3-carboxylate], the IC50 was 150 nM.
